For seven cell lines, relative viability results are on record in the supplement of paper PMC10307832.

What all share (test): relative viability (nuclei count vs DMSO), 5 days (fraction); higher = more cells survive
Compound in test [1]: C=CCNC1=C2C[C@@H](C)C[C@H](OC)[C@H](O)[C@@H](C)/C=C(\C)[C@H](OC(N)=O)[C@@H](OC)/C=C\C=C(/C)C(=O)NC(=CC1=O)C2=O [17-AAG] + CC(=O)Nc1cccc(-n2c(=O)n(C3CC3)c(=O)c3c(Nc4ccc(I)cc4F)n(C)c(=O)c(C)c32)c1 [Trametinib] (partner 0.02 µM)
The procedure, abridged:
(§1)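 Relative viability equals treated-well nuclei counts divided by vehicle-well nuclei counts. Counts came from 4× images of lung cancer cell lines grown in 1536-well plates for 5 days after pin-tool dosing on the day after seeding. Dosing used one drug alone or a fixed anchor-drug dose plus five library-drug doses (not always all listed) in √10 steps, and values are medians of duplicate plates.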

Compound in test [2]: C=CCNC1=C2C[C@@H](C)C[C@H](OC)[C@H](O)[C@@H](C)/C=C(\C)[C@H](OC(N)=O)[C@@H](OC)/C=C\C=C(/C)C(=O)NC(=CC1=O)C2=O [17-AAG] + CC1(C)CCC(c2ccc(Cl)cc2)=C(CN2CCN(c3ccc(C(=O)NS(=O)(=O)c4ccc(N[C@H](CCN5CCOCC5)CSc5ccccc5)c(S(=O)(=O)C(F)(F)F)c4)cc3)CC2)C1 [Navitoclax] (partner 0.5 µM)
The procedure, abridged: as §1

Compound in test [3]: C=CCNC1=C2C[C@@H](C)C[C@H](OC)[C@H](O)[C@@H](C)/C=C(\C)[C@H](OC(N)=O)[C@@H](OC)/C=C\C=C(/C)C(=O)NC(=CC1=O)C2=O [17-AAG] + N=C(N)NC(=N)NCCc1ccccc1 [Phenformin] (partner 250 µM)
The method in brief:
as §1

Compound in test [4]: C=CCNC1=C2C[C@@H](C)C[C@H](OC)[C@H](O)[C@@H](C)/C=C(\C)[C@H](OC(N)=O)[C@@H](OC)/C=C\C=C(/C)C(=O)NC(=CC1=O)C2=O [17-AAG] + Nc1nc2[nH]cc(CCc3ccc(C(=O)N[C@@H](CCC(=O)O)C(=O)O)cc3)c2c(=O)[nH]1 [Pemetrexed] (partner 0.2 µM)
The procedure, abridged: as §1

Regarding NCI-H1650, the relative viability in test [1] (first compound 0.00128 µM) is 0.657; in test [1] (first compound 0.004048 µM), 0.252; in test [1] (first compound 0.0128 µM), 0.143; in test [1] (first compound 0.04048 µM), 0.126; in test [1] (first compound 0.128 µM), 0.114; in test [2] (first compound 0.00128 µM), 1.19. For the same cell line, the relative viability in test [2] (first compound 0.004048 µM) was found to be 0.782; in test [2] (first compound 0.0128 µM), 0.407; in test [2] (first compound 0.04048 µM), 0.181; in test [2] (first compound 0.128 µM), 0.171; in test [3] (first compound 0.00128 µM) it was 0.294; in test [3] (first compound 0.004048 µM), 0.15. Moreover, the relative viability in test [3] (first compound 0.0128 µM) came to 0.146; in test [3] (first compound 0.04048 µM), 0.147; in test [3] (first compound 0.128 µM) it was 0.157; in test [4] (first compound 0.00128 µM) it was 0.336; in test [4] (first compound 0.004048 µM), 0.383; in test [4] (first compound 0.0128 µM), 0.351. In addition, the relative viability in test [4] (first compound 0.04048 µM) came to 0.168; in test [4] (first compound 0.128 µM), 0.15.

Regarding NCI-H647, the relative viability in test [1] (first compound 0.00128 µM) came out at 0.402; in test [1] (first compound 0.004048 µM), 0.29; in test [1] (first compound 0.0128 µM) it was 0.0765; in test [1] (first compound 0.04048 µM), 0.0969; in test [1] (first compound 0.128 µM) it was 0.0756; in test [2] (first compound 0.00128 µM) it was 1.23. Besides, the relative viability in test [2] (first compound 0.004048 µM) came to 1.01; in test [2] (first compound 0.0128 µM), 0.11; in test [2] (first compound 0.04048 µM), 0.104; in test [2] (first compound 0.128 µM) it was 0.0816; in test [3] (first compound 0.00128 µM), 0.569; in test [3] (first compound 0.004048 µM) it was 0.446. The relative viability in test [3] (first compound 0.0128 µM) was determined as 0.0903; in test [3] (first compound 0.04048 µM) it was 0.103; in test [3] (first compound 0.128 µM), 0.103; in test [4] (first compound 0.00128 µM), 0.203; in test [4] (first compound 0.004048 µM) it was 0.179; in test [4] (first compound 0.0128 µM), 0.102. The relative viability in test [4] (first compound 0.04048 µM) came out at 0.0945; in test [4] (first compound 0.128 µM), 0.0923.

For the cell line LCLC-97TM1, the relative viability in test [1] (first compound 0.00128 µM) stood at 0.201; in test [1] (first compound 0.004048 µM), 0.172; in test [1] (first compound 0.0128 µM) it was 0.163; in test [1] (first compound 0.04048 µM), 0.232; in test [1] (first compound 0.128 µM), 0.152; in test [2] (first compound 0.00128 µM), 0.47. Moreover, the relative viability was found to be 0.573 in test [2] (first compound 0.004048 µM); 0.518 in test [2] (first compound 0.0128 µM); 0.378 in test [2] (first compound 0.04048 µM); 0.355 in test [2] (first compound 0.128 µM); 0.454 in test [3] (first compound 0.00128 µM); 0.402 in test [3] (first compound 0.004048 µM). Also, the relative viability in test [3] (first compound 0.0128 µM) came to 0.428; in test [3] (first compound 0.04048 µM), 0.247; in test [3] (first compound 0.128 µM), 0.143; in test [4] (first compound 0.00128 µM), 0.188; in test [4] (first compound 0.004048 µM), 0.204; in test [4] (first compound 0.0128 µM) it was 0.186. The relative viability worked out at 0.206 in test [4] (first compound 0.04048 µM) and 0.116 in test [4] (first compound 0.128 µM).

For H3255, the relative viability in test [1] (first compound 0.00128 µM) was determined as 0.597; in test [1] (first compound 0.004048 µM) it was 0.556; in test [1] (first compound 0.0128 µM) it was 0.544; in test [1] (first compound 0.04048 µM) it was 0.31; in test [1] (first compound 0.128 µM) it was 0.21; in test [2] (first compound 0.00128 µM), 0.489. For the same cell line, the relative viability amounted to 0.66 in test [2] (first compound 0.004048 µM); 0.547 in test [2] (first compound 0.0128 µM); 0.0858 in test [2] (first compound 0.04048 µM); 0.107 in test [2] (first compound 0.128 µM); 0.365 in test [3] (first compound 0.00128 µM); 0.368 in test [3] (first compound 0.004048 µM). The relative viability turned out to be 0.331 in test [3] (first compound 0.0128 µM); 0.234 in test [3] (first compound 0.04048 µM); 0.189 in test [3] (first compound 0.128 µM); 0.578 in test [4] (first compound 0.00128 µM); 0.6 in test [4] (first compound 0.004048 µM); 0.531 in test [4] (first compound 0.0128 µM). Also, the values for the relative viability in test [4] (first compound 0.04048 µM) and in test [4] (first compound 0.128 µM) were 0.287 and 0.267, respectively.

With LXF-289, the relative viability in test [1] (first compound 0.00128 µM) amounted to 0.667; in test [1] (first compound 0.004048 µM), 0.661; in test [1] (first compound 0.0128 µM), 0.686; in test [1] (first compound 0.04048 µM) it was 0.58; in test [1] (first compound 0.128 µM), 0.145; in test [2] (first compound 0.00128 µM), 0.995. For the same cell line, the relative viability in test [2] (first compound 0.004048 µM) is 0.907; in test [2] (first compound 0.0128 µM), 0.891; in test [2] (first compound 0.04048 µM), 0.536; in test [2] (first compound 0.128 µM), 0.184; in test [3] (first compound 0.00128 µM) it was 0.544; in test [3] (first compound 0.004048 µM), 0.511. Besides, the relative viability in test [3] (first compound 0.0128 µM) was 0.189; in test [3] (first compound 0.04048 µM) it was 0.0865; in test [3] (first compound 0.128 µM), 0.0697; in test [4] (first compound 0.00128 µM) it was 0.889; in test [4] (first compound 0.004048 µM), 0.874; in test [4] (first compound 0.0128 µM), 0.575. The relative viability in test [4] (first compound 0.04048 µM) stood at 0.201; in test [4] (first compound 0.128 µM) it was 0.0927.

Turning to NCI-H2347, the relative viability in test [1] (first compound 0.00128 µM) was determined as 0.335; in test [1] (first compound 0.004048 µM), 0.275; in test [1] (first compound 0.0128 µM), 0.351; in test [1] (first compound 0.04048 µM) it was 0.288; in test [1] (first compound 0.128 µM), 0.321; in test [2] (first compound 0.00128 µM), 0.908. Moreover, the relative viability in test [2] (first compound 0.004048 µM) was 0.737; in test [2] (first compound 0.0128 µM), 0.74; in test [2] (first compound 0.04048 µM), 0.441; in test [2] (first compound 0.128 µM) it was 0.245; in test [3] (first compound 0.00128 µM), 0.466; in test [3] (first compound 0.004048 µM), 0.38. The relative viability in test [3] (first compound 0.0128 µM) worked out at 0.275; in test [3] (first compound 0.04048 µM) it was 0.187; in test [3] (first compound 0.128 µM), 0.191; in test [4] (first compound 0.00128 µM), 0.426; in test [4] (first compound 0.004048 µM) it was 0.463; in test [4] (first compound 0.0128 µM) it was 0.517. In addition, the relative viability in test [4] (first compound 0.04048 µM) came to 0.376; in test [4] (first compound 0.128 µM), 0.331.

As for LC-2-ad, the relative viability is 0.974 in test [1] (first compound 0.00128 µM); 0.954 in test [1] (first compound 0.004048 µM); 0.875 in test [1] (first compound 0.0128 µM); 0.408 in test [1] (first compound 0.04048 µM); 0.223 in test [1] (first compound 0.128 µM); 0.525 in test [2] (first compound 0.00128 µM). Moreover, the relative viability in test [2] (first compound 0.004048 µM) came to 0.565; in test [2] (first compound 0.0128 µM), 0.393; in test [2] (first compound 0.04048 µM), 0.234; in test [2] (first compound 0.128 µM), 0.111; in test [3] (first compound 0.00128 µM) it was 0.476; in test [3] (first compound 0.004048 µM), 0.523. Further, the relative viability in test [3] (first compound 0.0128 µM) was determined as 0.273; in test [3] (first compound 0.04048 µM) it was 0.258; in test [3] (first compound 0.128 µM), 0.227; in test [4] (first compound 0.00128 µM), 0.298; in test [4] (first compound 0.004048 µM), 0.257; in test [4] (first compound 0.0128 µM) it was 0.248. For the same cell line, the figures for the relative viability in test [4] (first compound 0.04048 µM) and in test [4] (first compound 0.128 µM) were 0.219 and 0.209, respectively.
